Measurements: patent US7504426B2, “Heterocyclic compounds” (Janssen Pharmaceutica N.V., priority 2003, dated 2009)
pKi: −log10 of the molar value.

Key:
Mast cells = experiment: Mast cell chemotaxis assay (histamine-induced, transwell); format: cell-based; details: 10 μM histamine; HR antagonist 1 μM
Experimental: Mast Cell Chemotaxis Assay
Mast cell accumulation in mucosal epithelia is a well-known characteristic of allergic rhinitis and asthma. Transwells (Costar, Cambridge, Mass.) of a pore size 8 μm were coated with 100 μL of 100 ng/mL human fibronectin (Sigma) for 2 h at room temperature. […] Mast cells (2×10^5/well) were added to the top chamber. The plates were incubated for 3 h at 37° C. Transwells were removed, and the cells in the bottom chamber were counted for sixty seconds using a flow cytometer.

[1] = biological target: T1, human histamine H4 receptor (Homo sapiens, UniProt Q9H3N8); experiment: biochemical
T1 sequence (Q9H3N8 whole entry): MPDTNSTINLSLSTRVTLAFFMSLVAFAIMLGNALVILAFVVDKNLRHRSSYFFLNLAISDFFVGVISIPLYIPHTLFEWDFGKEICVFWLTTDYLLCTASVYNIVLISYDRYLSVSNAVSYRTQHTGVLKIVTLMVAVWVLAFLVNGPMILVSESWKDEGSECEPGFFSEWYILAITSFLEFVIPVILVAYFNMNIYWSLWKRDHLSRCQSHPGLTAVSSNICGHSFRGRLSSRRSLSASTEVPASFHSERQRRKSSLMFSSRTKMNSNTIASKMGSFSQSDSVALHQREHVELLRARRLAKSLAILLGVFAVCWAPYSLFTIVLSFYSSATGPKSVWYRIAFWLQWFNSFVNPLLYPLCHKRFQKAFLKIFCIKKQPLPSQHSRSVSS

[2] = biological target: T1, human histamine H4 receptor; experiment: Binding assay on recombinant human histamine H4 receptor (3H-histamine displacement); details: read-out: Binding Assay Ki; repeated in the chemotaxis table

SMILES	% Inh (Mast cells)	pKi [1]	pKi [2]
O=C(c1nc2cc(Cl)ccc2[nH]1)N1CCNCC1 [Example 7, (5-Chloro-1H-benzoimidazol-2-yl)-piperazin-1-yl-methanone]	8%	7.06	7.06
CN1CCN(C(=O)c2nc3cc(F)c(F)cc3[nH]2)CC1 [Example 9, (5,6-Difluoro-1H-benzoimidazol-2-yl)-(4-methyl-piperazin-1-yl)-methanone]	–	7.55	7.55
Cc1ccc2[nH]c(C(=O)NC3CC4CCC(C3)N4C)nc2c1 (stereo not shown) [Example 25, 5-Methyl-1H-benzoimidazole-2-carboxylic acid (8-methyl-8-aza-bicyclo[3.2.1]oct-3-yl)-amide]	–	6.21	6.21
